We go through two compounds from patent publication US6479466B1, “Compositions for treating viral infections, and methods therefor” (University of Maryland, priority 1999, dated 2002).

For one series, the system named is HIV-1SF162. Put plainly: p24 antigen production in monocyte-derived macrophages infected with HIV-1SF162. Format: cell-based. The note with it: for virus production after drug removal on day 20: 10 μM ddI with or without 10 μM RV, 14 further days. As to the method: MDMs were prepared as described infra, and infected with the SF162 strain of HIV-1 obtained from Dr. Levy at the National Institutes of Health AIDS Research and Reference Reagent Program (Rockville, Md.). Briefly, 25×10^6 freshly isolated PBMCs were cultured for 5 days in T-25 flasks (Coming Costar, Cambridge, Mass.) containing culture medium supplemented with 20% FBS and 10% AB human serum (Gemini Bioproducts, Inc., Calabasas, Calif.). On day 5, non-adherent cells were removed by washing five times with warm RPMI/10%FBS medium. Adherent cells in representative flasks were counted by trypan blue exclusion. By morphology and cytochemical staining for nonspecific esterase (Sigma), more than 97% of cells were macrophages. HIV infection was carried out by adding virus to the flask at a multiplicity of infection of 2000 TCID50/10^6 adherent cells and incubating for 3 hours. Flasks were then washed 3 times with warm RPMI/10%FBS medium and cultured in RPMI containing 20% FBS plus drugs. Every 3 days culture supernatants were collected and fresh medium containing drugs was added to each flask. Virus replication was assayed weekly for p^24 antigen production as described in Example 1 in the supernatant. Cultures were maintained for 3 weeks.
For the present example, cultures were maintained in the presence of 10 μM RV and varying concentrations of ddI. The amount of p24 antigen produced in the supernatant was measured on days 7 and 16 after infection. […] However, a 10-fold or greater potentiation of ddI-antiviral activity was observed when the nucleoside analogue was combined with 10 μM RV.
MDMs derived from 2 seronegative donors were infected with the SF 162 strain of HIV-1 and cultured in the presence of 10 μM ddI, a plasma level attainable in treated individuals. The anti-HIV effect of this concentration of ddI was investigated in the presence or absence of 10 μM RV. DdI alone (10 μM) inhibited viral replication by more than 90% in both donors on day 7 after infection. […] The strong antiviral activity achieved by RV plus ddI on day 16 was further analyzed by removing the drugs from the culture. The drugs were then removed on day 20 and the macrophages maintained in culture for an additional 14 days. In donor #1 MDMs, a virus rebound followed drug removal in the cultures that had been exposed to ddI alone.

The test system of series [1] is PHA-activated PBMCs. Put plainly: Cell viability by trypan blue staining in PHA-activated PBMCs. In kind it is cell-based, human. As to the method: The effect of RV and […] on PBMC proliferation at the concentrations shown to enhance the anti-HIV effect of ddI were examined. Cellular proliferation in culture in the presence or absence of drugs was measured by commercial MTT assay, according to the manufacturer's instructions (Boehringer Mannheim). Cell viability was determined by trypan blue staining.
In a separate study designed to assess cell viability by trypan blue staining, PHA-activated PBMCs were cultured for 7 days in the presence of IL-2, 2 μM ddI, plus varying concentrations of RV. When RV was used at 25 μM, over 60% of cells became trypan blue stained, therefore indicating cell death. In the absence of RV or when RV was used at 5 or 10 μM, values of more than 95% cell viability were obtained.

The test system of series [2] is PHA-activated PBMCs. Kind of series: 3H-thymidine incorporation (DNA synthesis) assay in proliferating PBMCs. The note with it: RV 10 μM; day 2. In kind it is cell-based, human. For orientation: Dividing cells build labelled thymidine or BrdU into new DNA.
Experimental: For example, a thymidine incorporation assay using PBMC's may be carried out as follows. PBMC's are suspended, then 0.1 ml (100,000) of cells are added to each designated well of a 96-well plate. The plates are placed into a 37° C., 5% CO2, 95% humid incubator for the predetermined incubation periods—normally 2 and 5 days. At the end of the incubation period, and at a standard time prior to harvesting the plate (6-18 hours), 1.0-1.5 μCi (20 μl of 50-75 mCi/ml in complete medium) of [^3H]-labeled methyl thymidine is added to each well of the assay. The plates are then incubated for the remaining 6-18 hours. At the end of the [^3H]-thymidine pulse, the plates are harvested onto filter paper using a semi-automated multi-well harvester. The filter paper containing bound DNA may be dried using either ethanol or by moderate microwave heating. The filter paper samples are counted in a scintillation counter using standard procedures.
Proliferating PBMCs were cultured in the presence of RV or HU for 5 days. On day 2 and 5 an MTT assay and a ^3H-thymidine incorporation assay were performed.
Another series relates to HIV-162V, 751, 77L, 151M. Put plainly: p24 antigen in activated PBMCs infected with isolate 62V, 75I, 77L, 151M. The conditions noted are these: Human immunodeficiency virus 1, PBMC, read-out: ddI IC90. Format: cell-based, HIV-1. From the text: The present example provides data to test whether viral isolates carrying mutations in the RT gene that confer resistance to ddI could be rendered sensitive when the nucleoside analogue was combined with RV. Viruses containing one or more of the mutations associated with resistance to ddI, e.g., an isolate carrying the L74V mutation which confers primary resistance to ddI, a virus isolate carrying 4 different resistance-associated mutations in the RT gene (HIV-1 RTMDR1) were used to infect PHA-stimulated PBMCs. The HIV-174V isolate, and the HIV-1RTMDR1 isolate (containing the M41L, L74V, V106A and T215Y mutations, conferring resistance to AZT, ddI, nevirapine and other non-nucleotide RT inhibitors) were obtained from Dr. Larder at the National Institutes of Health AIDS Research and Reference Reagent Program (Catalog #2528 and #2529, respectively, Rockville, Md.). In addition, viruses having mutations 65R, 74V, 184V in the RT gene, and a virus containing the multiple-nucleoside-resistance mutation 151M were assayed in infectivity assays using RV plus ddI. The mutations present in the RT gene of each virus as well as their susceptibility to ddI are as follows: HIV-174V(ddIIC90=2.6 μM); HIV-141L, 74V, 106A, 215Y (ddIIC90=4.5 μM); HIV-165R, 74V, 184V (ddIIC90>20 μM) and HIV-162V, 751, 77L, 151M (ddIIC90>20 μM). […]

On to `Oc1ccc(/C=C/c2cc(O)cc(O)c2)cc1` [RV, trans-3, 4′, 5-trihydroxystilbene], for which the anti-HIV effect result with HIV-1SF162 (RV 10 μM in the absence of ddI, 2 donors) is on record as “only a modest anti-HIV effect”. Besides, the toxicity to cells entry in the series on PHA-activated PBMCs [1] (RV 10 μM) is listed as “not toxic”. The “trypan blue stained cells (cell death)” value in the series on PHA-activated PBMCs [1] (RV 25 μM, 7 days, with IL-2 and 2 μM ddI) is “over 60%”. Besides, in the series with PHA-activated PBMCs [1] (RV 5 or 10 μM, 7 days, with IL-2 and 2 μM ddI), the cell viability entry is on record as “more than 95%”. Moreover, in the series with PHA-activated PBMCs [2], the “3H-thymidine incorporation (DNA synthesis)” value is “higher amounts of ^3H-thymidine incorporation than the untreated control”.

As for `OC[C@@H]1CC[C@H](n2cnc3c(O)ncnc32)O1` [ddI, 2′,3′-dideoxyinosine], the inhibition (commonly the change of the read-out against control, counted positive when it falls) at 10 µM in the series with HIV-1SF162 (Human immunodeficiency virus 1, Macrophage, 168 h, ddI alone 10 μM, both donors, day 7, read-out: inhibition of viral replication) is > 90%. The entries for the “virus production after drug removal on day 20” value with HIV-1SF162 (donor #1 MDMs) and with HIV-1SF162 (donor #2 MDMs) were “virus rebound” and “continued releasing virus”, respectively. In the series with HIV-162V, 751, 77L, 151M, the IC90 – broadly, the point of the concentration-response curve where the effect stands at 90% – was > 20 µM.
